Measurements from ChEMBL document CHEMBL3045528, “Development of a Novel Fungicide, Cyazofamid” (J Pestic Sci, 2004).
In brackets after ≈: the same amount, converted by molar mass.

Experiments:
[1] = system: Pseudoperonospora cubensis; assay: Antimicrobial activity against Pseudoperonospora cubensis infested in cucumber plant; type: functional
[2] = system: Plasmopara viticola; assay: Antimicrobial activity against Plasmopara viticola infested in grapevines; type: functional
[3] = system: Pseudoperonospora cubensis; assay: Antimicrobial activity against Pseudoperonospora cubensis infested in melons; type: functional
[4] = system: Phytophthora infestans; assay: Antimicrobial activity against Phytophthora infestans infested in potato plant; type: functional
[5] = Solubility of the compound in water at pH 5 at 20 degC; type: physicochemical
[6] = system: Apis mellifera; assay: Acute toxicity in Apis mellifera (honey bee) compound administered topically; type: organism-based; details: in vivo, topical_or_ocular
[7] = Acute toxicity in Pheretima sieboldi; type: organism-based; details: metaphire sieboldi, in vivo
[8] = system: Apis mellifera; assay: Acute toxicity in po dosed Apis mellifera (honey bee); type: organism-based; details: in vivo
[9] = system: Selenastrum capricornutum; assay: Toxicity in Selenastrum capricornutum; type: organism-based
[10] = system: Daphnia magna; assay: Toxicity in Daphnia magna; type: organism-based
[11] = Toxicity in Oncorhynchus mykiss (rainbow trout); type: organism-based; details: in vivo
[12] = Toxicity in Cyprinidae (carp fish); type: ADME, organism-based; details: in vivo
[13] = Acute toxicity in Rattus norvegicus (rat) administered through inhalation; type: organism-based; details: in vivo, inhaled or intranasal
[14] = Acute toxicity in […] dosed Rattus norvegicus (rat); type: organism-based; details: in vivo
[15] = Acute toxicity in po dosed Mus musculus (mouse); type: organism-based; details: in vivo
[16] = Acute toxicity in po dosed Rattus norvegicus (rat); type: organism-based; details: in vivo
[17] = system: Phytophthora infestans; assay: Antimicrobial activity against Phytophthora infestans infested in tomato plant; type: functional

Structure (SMILES): Cc1ccc(-c2c(Cl)nc(C#N)n2S(=O)(=O)N(C)C)cc1 [Cyazofamid]
- Activity [1]: 50 µg/mL
- Activity [2]: 50 µg/mL
- Activity [3]: 50 µg/mL
- Activity [4]: 50 µg/mL
- solubility [5]: 0.121 µg/mL (≈ 0.373 µM)
- LD50 [6]: > 100 µg
- NOAEL [7]: > 1000 mg/kg
- LD50 [8]: > 151.7 µg
- EC50 [9]: 0.858 µg/mL (≈ 2.64 µM)
- EC50 [10]: > 0.198 µg/mL
- LC50 [11]: > 100 µg/mL
- LC50 [12]: > 69.6 µg/mL
- LC50 [13]: > 5.5 µg/mL
- LD50 [14]: > 2000 mg/kg
- LD50 [15]: > 5000 mg/kg
- LD50 [16]: > 5000 mg/kg
- Activity [17]: 50 µg/mL
